Patent US8293979B2, “Weed controller metabolism proteins, genes, thereof and use of the same” (Sumitomo Chemical Company, Limited, priority 2001, dated 2012)

What was measured:
[1] = test system: present invention protein (A11); assay: Metabolism of compound (X) by the present invention protein (A11), E. coli JM109/pKSN849AF cell suspension; type: in vitro ADME, Streptomyces nogalator IFO13445; settings: compound at 25 ppm, shaking at 30° C., fractioned at 0 hours and 4 days, ethyl acetate layer, HPLC
Procedure: (§1) Each of E. coli JM109/pKSN849AF and E. coli JM109/pKSN2 was cultured overnight at 37° C. in 3 ml of TB culture containing 50 μg/ml of ampicillin. A milliliter (1 ml) of the obtained culture mediums was transferred to 100 ml of TB medium containing 50 μg/ml of ampicillin and cultured at 26° C. When OD660 reached about 0.5, 5-aminolevulinic acid was added to the final concentration of 500 μM, and the culturing was continued. Thirty (30) minutes thereafter, IPTG was added to a final concentration of 1 mM, and there was further culturing for 18 hours.
The cells were recovered from the culture medium, washed with 0.1M tris-HCl buffer (pH7.5) and suspended in 10 ml of 0.1M Tris-HCl buffer containing 1% glucose. […] The obtained ethyl acetate layers were analyzed on a HPLC under reaction condition 1. Compared to the concentration of compound (X) detected from the ethyl acetate layer prepared from the JM109/pKSN2 cell suspension, the concentration of compound (X) detected from the ethyl acetate layer prepared from the JM109/pKSN849AF cell suspension was lower. Further 3 peaks, which were not detected from the ethyl acetate layer prepared from the JM109/pKSN2 cell suspension, were detected from the ethyl acetate layer prepared from the JM109/pKSN849AF cell suspension. […]

[2] = test system: present invention protein (A1); type: in vitro ADME, Streptomyces phaeochromogenes IFO12898; settings: E. coli JM109/pKSN657F cell suspension, compound at 100 ppm, shaking at 30° C., ethyl acetate layer, HPLC
Procedure: as §1, with “E.” for “Each of E.”, “coli JM109/pKSN657F” for “coli JM109/pKSN849AF and E. coli JM109/pKSN2”, “TB medium” for “TB culture”, “culture medium” for “culture mediums”, “for 20” for “for 18”
The cells were recovered from the culture medium, washed with 0.1M tris-HCl buffer (pH7.5) and suspended in 10 ml of 0.1M Tris-HCl buffer containing 1% glucose. Compound (VI) was added to the obtained cell suspension to a final concentration of 100 ppm and that was incubated with shaking at 30° C. At each of 0 hours after and 1 day after the start of shaking, 2 ml of the cell suspension were fractioned. Fifty microliters (50 μl) of 2N HCl were added to each and those were extracted with 2 ml of ethyl acetate. The obtained ethyl acetate layers were analyzed on a HPLC under reaction condition 1. Compared to the concentration of compound (VI) detected from the ethyl acetate layer prepared from the cell suspension at 0 hours after the start of shaking, the concentration of compound (VI) detected from the ethyl acetate later prepared from the cell suspension at 1 day after the start of shaking was lower. Further a peak, which was not detected from the ethyl acetate layer prepared from the cell suspension at 0 hours after the start of shaking, was detected from the ethyl acetate layer prepared from the cell suspension at 1 day after the start of shaking Mass spectrometry of the compound contained in said peak was conducted. […]
Other than utilizing compound (VIII) instead of compound (VI), there was conducted in accordance with the method described in Example 41(6), a culturing of E. coli JM109/pKSN657F, preparation of the cell suspension solution, incubation with shaking of the cell suspension solution to which compound (VIII) was added, reagent preparation from the cell suspension solution and HPLC analysis of the reagents. Compared to the concentration of compound (VIII) detected from the ethyl acetate layer prepared from the cell suspension at 0 hours after the start of shaking, the concentration of compound (VIII) detected from the ethyl acetate layer prepared from the cell suspension at 1 day after the start of shaking was lower. Further two peaks, which were not detected from the ethyl acetate layer prepared from the cell suspension at 0 hours after the start of shaking, were detected from the ethyl acetate layer prepared from the cell suspension at 1 day after the start of shaking Mass spectrometry of the compounds contained in said peaks were conducted. […]

C=CCOC(=O)C(C)(C)OC(=O)c1cc(-n2c(=O)cc(C(F)(F)F)n(C)c2=O)ccc1Cl [compound (X)]
concentration of the compound detected from the JM109/pKSN849AF cell suspension compared to the JM109/pKSN2 cell suspension [1]: lower | concentration of the compound detected from the cell suspension at 1 day compared to 0 hours after the start of shaking [2]: lower
